Assay results as given in ChEMBL document CHEMBL1139612 (Bioorg Med Chem Lett, 2005).

Columns and labels:
[1] = target: Serotonin 1a (5-HT1a) receptor/Adrenergic receptor alpha-1 (Rattus norvegicus) (UniProt P15823+P23944+P43140+P19327); assay: Ratio of alpha-1 adrenergic receptor to that of 5-hydroxytryptamine 1A receptor; format: protein assay
[2] = target: T1, Adrenergic receptor alpha-1 (Rattus norvegicus, UniProt P15823+P23944+P43140); assay: Inhibitory concentration against Alpha-1 adrenergic receptor in rat cerebral cortex membrane using [3H]prazosin as radioligand; format: cell membranes
T1 sequence (P15823 whole entry): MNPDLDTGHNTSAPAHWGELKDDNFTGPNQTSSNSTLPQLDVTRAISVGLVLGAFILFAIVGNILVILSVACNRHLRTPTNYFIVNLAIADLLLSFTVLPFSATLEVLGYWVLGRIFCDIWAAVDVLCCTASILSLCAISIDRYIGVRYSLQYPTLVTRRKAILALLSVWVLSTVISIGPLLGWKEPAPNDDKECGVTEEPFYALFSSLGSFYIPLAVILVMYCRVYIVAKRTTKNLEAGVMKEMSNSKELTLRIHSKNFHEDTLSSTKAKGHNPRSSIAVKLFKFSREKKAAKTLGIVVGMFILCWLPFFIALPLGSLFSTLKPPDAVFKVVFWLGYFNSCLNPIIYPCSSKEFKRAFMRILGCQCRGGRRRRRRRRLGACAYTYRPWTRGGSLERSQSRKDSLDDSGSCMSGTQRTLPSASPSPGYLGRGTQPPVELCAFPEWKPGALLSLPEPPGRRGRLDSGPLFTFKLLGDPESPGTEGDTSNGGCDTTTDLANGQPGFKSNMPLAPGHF
T1 sequence (P23944 whole entry): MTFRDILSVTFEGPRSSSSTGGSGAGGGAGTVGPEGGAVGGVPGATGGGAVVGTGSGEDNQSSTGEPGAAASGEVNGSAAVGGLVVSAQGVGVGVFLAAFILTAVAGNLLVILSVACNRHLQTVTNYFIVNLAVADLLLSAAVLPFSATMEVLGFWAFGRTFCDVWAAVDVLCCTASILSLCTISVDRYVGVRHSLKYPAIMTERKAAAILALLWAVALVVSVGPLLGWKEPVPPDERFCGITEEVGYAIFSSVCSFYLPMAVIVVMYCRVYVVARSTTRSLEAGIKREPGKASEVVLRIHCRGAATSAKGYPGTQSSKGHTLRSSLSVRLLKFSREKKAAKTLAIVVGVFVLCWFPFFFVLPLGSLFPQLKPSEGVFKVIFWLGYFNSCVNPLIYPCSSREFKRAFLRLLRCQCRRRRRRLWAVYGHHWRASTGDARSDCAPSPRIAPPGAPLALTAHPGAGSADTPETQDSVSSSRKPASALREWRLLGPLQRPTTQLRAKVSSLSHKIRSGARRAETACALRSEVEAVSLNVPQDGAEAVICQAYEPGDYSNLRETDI
T1 sequence (P43140 whole entry): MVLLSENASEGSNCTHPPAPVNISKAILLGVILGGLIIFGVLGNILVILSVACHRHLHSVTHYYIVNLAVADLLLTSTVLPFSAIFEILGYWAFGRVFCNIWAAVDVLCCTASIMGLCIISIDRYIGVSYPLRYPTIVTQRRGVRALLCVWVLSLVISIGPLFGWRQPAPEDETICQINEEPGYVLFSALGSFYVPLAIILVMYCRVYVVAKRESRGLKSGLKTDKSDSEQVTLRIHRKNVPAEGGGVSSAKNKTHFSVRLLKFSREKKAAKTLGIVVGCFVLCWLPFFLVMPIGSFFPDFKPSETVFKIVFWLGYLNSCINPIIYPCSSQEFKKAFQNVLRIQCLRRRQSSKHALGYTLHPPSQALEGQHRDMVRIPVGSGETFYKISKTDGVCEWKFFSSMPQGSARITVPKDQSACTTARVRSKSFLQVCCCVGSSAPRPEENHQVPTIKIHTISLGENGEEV

Rattus norvegicus = species on record: Rattus norvegicus; assay: Ratio of dopamine receptor D2 to that of 5-hydroxytryptamine 1A receptor
[3] = target: T2, 5-hydroxytryptamine receptor 1A (Rattus norvegicus, UniProt P19327); assay: Inhibitory concentration against 5-hydroxytryptamine 1A receptor in rat hippocampus membrane using [3H]-8-OH-DPAT as radioligand; format: cell membranes
T2 sequence (P19327 whole entry): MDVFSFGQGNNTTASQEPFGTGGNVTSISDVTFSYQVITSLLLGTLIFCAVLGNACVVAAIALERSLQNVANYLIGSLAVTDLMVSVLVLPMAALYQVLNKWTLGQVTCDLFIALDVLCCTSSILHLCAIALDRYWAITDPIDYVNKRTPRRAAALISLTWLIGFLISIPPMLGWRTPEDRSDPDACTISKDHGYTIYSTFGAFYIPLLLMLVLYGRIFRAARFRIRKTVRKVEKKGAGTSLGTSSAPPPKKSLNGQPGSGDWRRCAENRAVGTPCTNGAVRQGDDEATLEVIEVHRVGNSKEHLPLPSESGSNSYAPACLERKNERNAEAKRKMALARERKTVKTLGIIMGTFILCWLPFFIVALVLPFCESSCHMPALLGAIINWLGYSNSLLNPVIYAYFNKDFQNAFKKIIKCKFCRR

D(2) dopamine receptor = D(2) dopamine receptor (Rattus norvegicus, UniProt P61169); assay: Inhibitory concentration against Dopamine receptor D2 in rat striatum membrane using [3H]raclopride as radioligand; format: cell membranes
Sequence of D(2) dopamine receptor (P61169 whole entry): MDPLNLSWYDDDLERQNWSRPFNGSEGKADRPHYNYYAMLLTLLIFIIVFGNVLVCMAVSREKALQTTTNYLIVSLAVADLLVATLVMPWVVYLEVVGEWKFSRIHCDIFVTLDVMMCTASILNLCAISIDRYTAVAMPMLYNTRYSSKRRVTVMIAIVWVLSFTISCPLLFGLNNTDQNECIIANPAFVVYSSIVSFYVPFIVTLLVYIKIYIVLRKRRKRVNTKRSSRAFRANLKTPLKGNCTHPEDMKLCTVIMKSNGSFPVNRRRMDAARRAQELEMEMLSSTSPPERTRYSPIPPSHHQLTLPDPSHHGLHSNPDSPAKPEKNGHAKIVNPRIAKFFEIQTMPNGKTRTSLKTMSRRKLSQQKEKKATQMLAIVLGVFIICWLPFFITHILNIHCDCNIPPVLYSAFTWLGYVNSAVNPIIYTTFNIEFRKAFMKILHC

| Structure (SMILES) | Ratio [1] | IC50 [2] | Ratio (Rattus norvegicus) | IC50 [3] | IC50 (D(2) dopamine receptor) |
| --- | --- | --- | --- | --- | --- |
| Cl.O=C1c2ccccc2OC=C(Cl)N1CCCCN1CCC(O)(c2ncccn2)CC1 | 3.6 | 9560 nM |  |  |  |
| Cl.O=C1c2ccccc2OC=C(Cl)N1CCCCN1CCC(c2ncccn2)CC1 | 344 | 2000 nM | 310 |  |  |
| O=C1c2ccccc2OC=C(Cl)N1CCCCN1CCN(c2ncccn2)CC1 | 342 | 544 nM | 125 |  |  |
| Cl.O=C1c2ccccc2OC=C(Cl)N1CCCCN1CC=C(c2ncccn2)CC1 | 670 | 924 nM | 358 |  |  |
| O=C(O)/C=C/C(=O)O.O=C1c2ccccc2OC=C(Cl)N1CCCCN1CCC=C(c2ncccn2)C1 | 4.8 | 384 nM | 11 | 79.6 nM | 893 nM |
| O=C1c2ccccc2OC=C(Cl)N1CCCCN1CCCC(c2ncccn2)C1 (stereo not given) |  |  |  | 314 nM |  |
| O=C1c2ccccc2OC=C(Cl)N1CCCCN1CCN(c2ccccn2)CC1 | 56 | 43 nM | 66 |  |  |
